{
  "source": "patent US9358226B2",
  "about": "“Triarylmethane analogs and their use in treating cancers” (Emory University, priority 2007, dated 2016)",
  "key": {"[1]": {"experiment": "ESR spectrum with superoxide dismutase", "conditions": "room temperature ESR, conditions as in Li et al.", "protocol": "Li used ESR to confirm the production of NADPH-dependent.O2—by isolated endosomes (Li et al., Molecular and Cellular Biology, January 2006, p. 140-154, 26(1):140-154 (2006)). ESR assays were conducted at room temperature using a Bruker model EMX ESR spectrometer (Bruker). Vesicular fractions from each sample were mixed with the spin trap, 50 mM 5,5-dimethyl-1-pyrroline N-oxide (DMPO), in a total volume of 500 μl of PBS, pH 7.4. This solution contained iminodiacetic acid-chelating resin (10 ml/liter; Sigma-Aldrich). The reaction was initiated by adding NADPH to 100 μM and was immediately placed into the ESR spectrometer. DMPO-hydroxyl radical adduct formation was assayed for 10 min. Instrument settings were as follows: receiver gain, 1×10^6; modulation frequency, 100 kHz; microwave power, 40.14 mW; modulation amplitude, 1.0 G; and sweep rate, 1 G/s."}, "bEnd.3 hemangiomas": {"test_system": "bEnd.3 hemangiomas", "experiment": "bEnd.3 hemangioma in vivo, intralesional treatment", "protocol": "In order to determine if compounds that inhibit ang-2 formation in vitro would ameliorate hemangioma formation in vivo, we injected one million bEnd.3 cells subcutaneously into nine nude mice.\nFor each treatment condition, three mice were injected with 1,000,000 bEnd.3 cells and received intralesional injection with either vehicle control, brilliant green or gentian viol et (from left to right in photo) on days 9 and 14. Animals were euthanized on day 20, secondary to tumor burden in the control animals.\nFor each treatment condition, three mice were subcutaneously injected with one million bEnd.3 cells and monitored for tumor development. On day 9, tumors were measured in all nine animals, and there was no significant difference in tumor volume before the initiation of treatment. Each mouse then received intralesional injection with either 0.33 ml vehicle control, brilliant green (5 mg/kg, dissolved in […] ethanol and 900 μl intralipid) or gentian violet (5 mg/kg, dissolved in 100 μl ethanol and 900 μl intralipid) on days 9 and 14. No toxicity was noted following injection. Animals were euthanized on day 20, secondary to tumor burden in the control animals. Photos represent average tumor burden in each of the three groups (FIG. 3a), and tumor volume (mm^3) is graphically depicted (FIG. 3b). Error bars represent the standard error of the mean."}, "Nox4": {"molecular_target": "T1, Nox4 (Homo sapiens, UniProt Q9NPH5)", "T1 construct": "expressed in transfected cells; host or cells: HEK293 Nox4-11 cells", "T1 sequence (Q9NPH5 1-578)": "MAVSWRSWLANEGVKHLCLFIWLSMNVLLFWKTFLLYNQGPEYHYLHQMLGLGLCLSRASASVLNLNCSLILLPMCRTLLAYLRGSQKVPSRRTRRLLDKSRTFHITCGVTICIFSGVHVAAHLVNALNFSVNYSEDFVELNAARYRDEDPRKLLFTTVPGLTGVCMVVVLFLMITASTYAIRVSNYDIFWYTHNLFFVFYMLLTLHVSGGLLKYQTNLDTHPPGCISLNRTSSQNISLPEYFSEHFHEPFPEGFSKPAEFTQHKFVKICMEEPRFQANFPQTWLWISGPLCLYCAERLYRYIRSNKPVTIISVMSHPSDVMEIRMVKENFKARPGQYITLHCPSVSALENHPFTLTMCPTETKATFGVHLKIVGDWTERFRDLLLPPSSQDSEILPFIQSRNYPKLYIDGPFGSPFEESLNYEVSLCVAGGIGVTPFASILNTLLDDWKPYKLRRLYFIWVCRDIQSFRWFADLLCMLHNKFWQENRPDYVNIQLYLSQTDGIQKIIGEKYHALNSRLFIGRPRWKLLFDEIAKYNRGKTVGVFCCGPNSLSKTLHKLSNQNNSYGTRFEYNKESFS", "T1 sequence (P13498 2-195 partner limits assumed)": "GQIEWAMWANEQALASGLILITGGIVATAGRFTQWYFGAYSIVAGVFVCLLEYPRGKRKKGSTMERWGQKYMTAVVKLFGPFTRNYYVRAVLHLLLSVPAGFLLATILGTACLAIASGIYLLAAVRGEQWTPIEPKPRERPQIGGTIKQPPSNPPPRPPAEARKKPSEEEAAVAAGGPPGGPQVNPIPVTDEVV", "experiment": "H2O2 production, homovanillic acid assay, HEK293 Nox4-11 cells", "assay_type": "cell-based", "conditions": "1 hour 37° C.", "protocol": "After 1 hour incubation at 37° C., the reaction was stopped and H2O2 production was measured using the homovanillic acid assay. The ability of these drugs to inhibit production of H2O2 is shown as a percentage relative to the untreated control (100%). […] Optimal Nox2 activity requires phorbol 12-myristate 13-acetate stimulation whereas Nox4 activity is constitutive.\nH2O2 release was measured using the homovanillic acid assay as described previously (Martyn, 2006). Briefly, 1.5-1.75×10^5 cells/well of a 12-well plate were seeded. The following day, cells were washed once with Hank's balanced salt solution and then preincubated for 15 minutes with either gentian violet (10-20 nM) or brilliant green (0.5-1.0 μM) in 1 ml of media. The cells were then washed once with Hank's balanced salt solution. Gentian violet or brilliant green was added at the same concentrations as in pretreatment to 0.5 ml of homovanillic acid assay solution (100 μM homovanillic acid assay, 4 U/ml horseradish peroxidase in Hank's balanced salt solution with Ca^2+ and Mg^2+) and incubated with the cells for 1 hour at 37° C. Cos-phox cells were additionally stimulated with 0.4 μg/ml phorbol 12-myristate 13-acetate. […] Fluorescence was read on a BioTek Synergy HT (BioTek Instruments Inc., Winooski, Vermont, […].) with an excitation of 320 nm and emission of 440 nm."}},
  "data": [
    {"smiles": "CN(C)c1ccc(C(=C2C=CC(=[N+](C)C)C=C2)c2ccc(N(C)C)cc2)cc1", "note": "[Gentian Violet (GV), hexamethyl pararosaniline chloride]", "values": [
      {"measurement": "radical formation with superoxide (ESR)", "setting": "[1]", "value": "appear to form a radical by reacting with superoxide"},
      {"measurement": "decrease in tumor size compared to control", "setting": "bEnd.3 hemangiomas; 5 mg/kg intralesional on days 9 and 14, euthanized day 20", "value": 92.6, "unit": "%"},
      {"measurement": "toxicity as a result of treatment", "setting": "bEnd.3 hemangiomas; mouse, in vivo, 5 mg/kg", "value": "Neither local nor systemic toxicity was observed"},
      {"measurement": "inhibition of Nox4 activity (H2O2 production)", "setting": "Nox4", "value": "inhibited"}
    ]}
  ]
}
